Values of other authors, collected in publication PMC5574958, “Radiosynthesis and Preclinical Evaluation of [^18F]F-DPA, A Novel Pyrazolo[1,5a]pyrimidine Acetamide TSPO Radioligand, in Healthy Sprague Dawley Rats” (Molecular Imaging and Biology, 2017).

Molecular target: TSPO
Details: read-out: K i (TSPO affinity); cited from earlier work

Compound: CCN(CC)C(=O)Cc1c(-c2ccc([18F])cc2)nn2c(C)cc(C)nc12 [[^18F]F-DPA]
- Ki: 1.7 nM
